Results reported in patent US10435399B2, “HDAC6 inhibitory heterocyclic compound” (TAKEDA PHARMACEUTICAL COMPANY LIMITED, priority 2017, dated 2019).

How the values were obtained:
[1] = system: acetylated tubulin in brain (hippocampus); assay: Increase in acetylated tubulin in brain (hippocampus ELISA); type: in vivo, C57BL/6J mouse; conditions: mouse hippocampus, oral 3 mg/kg, 1 h after administration, vs vehicle
Procedure: Increase in Acetylated Tubulin in Brain
A drug was suspended in 0.5% methyl cellulose to prepare a suspension for administration, having a concentration shown in Table 3. The suspension was orally administered into 8 to […] male C57BL/6J mouse, and after the passage of the time shown in Table 3, the brain was taken out, and hippocampus was obtained. The hippocampus was homogenized under RIPA extract (Wako) to which protease inhibitor (Thermo) and phosphatase inhibitor (Thermo) were added, and centrifuged in 15,000 g for 15 min to prepare a protein extract. The acetylated tubulin and total tubulin in the extract were detected by the following ELISA method. Tubulin antibody (Sigma) was immobilized on 96-well plate (Microlite2+, Thermo), and the plate was stored at 4° C. […] The plate was washed, HRP substrate was added thereto, and the luminescence was measured using a plate reader. The acetylated tubulin and total tubulin were quantified from logistics curve based on dilution series using the mouse hippocampus tissue extract, and the acetylated tubulin relative to total tubulin was calculated, and evaluated as an relative tubulin acetylation level. […] After F test for vehicle group and drug group, the significant difference between the two groups was analyzed by Student t-test or Welch test (indicated as * p<0.05, ** p<0.01). […]

TK6 cells = assay: γH2AX assay using TK6 cells; type: cell-based, Human; conditions: 4 hr treatment, up to 100 μM
Procedure: γH2AX Assay Using TK6 Cells
Human lymphoblasts-derived TK6 cells were treated with the compounds of Examples 489, 512 or 519 at 0, 10, 30 or 100 μmol/L (final concentration) for 4 hr, and the presence or absence of DNA damage was evaluated by measuring phosphorylation of histone H2AX (γH2AX) as a marker. In addition, cytotoxicity after 24-hr treatment was also evaluated.
Exponentially growing TK6 cells were prepared at the cell density of 4×10^5 cells/mL in a culture medium, and was added to a 96-well plate by 100 μL/well. A test compound solution (2% DMSO) prepared using a culture solution, having twice the concentration on the above-mentioned final concentrations, was added thereto by 100 μL/well. This plate was incubated at 37° C., the cell suspension after 4 hr was sampled, and stained using In Vitro MultiFlow™ DNA Damage Kit (Litron), and H2AX phosphorylation level in each nucleus was measured using a flow cytometer and average value was calculated. The H2AX phosphorylation level in the concurrent vehicle control group was also measured and average value was calculated. The rate of change in the H2AX phosphorylation level in the treatment groups relative to that in the control group was calculated, and Dunnett test (significance level: two-tailed 1%) was performed. In addition, the cell suspension after 24 hr treatment was sampled, and the nucleus number was measured, and variation in the nucleus number in the treatment groups relative to that in the concurrent vehicle control group was used as an indicator of cytotoxicity. […] Therefore, the potential of the compounds for DNA strand breakage was judged to be negative under this test condition.

HDAC6 enzyme = molecular target: T1, HDAC6 enzyme (Homo sapiens, UniProt Q9UBN7); assay: HDAC6 enzyme inhibitory activity (HDAC-Glo I/II Assay kit); type: biochemical; conditions: 10 μM; wells without enzyme = 100% inhibition; read-out: HDAC6 inhibitory rate (%) (10 μM)
T1 construct: transducing full length HDAC6 gene into Sf-9 insect cells; GST; purchased SignalChem; host or cells: Sf-9 insect cells
T1 sequence (Q9UBN7 1-1215): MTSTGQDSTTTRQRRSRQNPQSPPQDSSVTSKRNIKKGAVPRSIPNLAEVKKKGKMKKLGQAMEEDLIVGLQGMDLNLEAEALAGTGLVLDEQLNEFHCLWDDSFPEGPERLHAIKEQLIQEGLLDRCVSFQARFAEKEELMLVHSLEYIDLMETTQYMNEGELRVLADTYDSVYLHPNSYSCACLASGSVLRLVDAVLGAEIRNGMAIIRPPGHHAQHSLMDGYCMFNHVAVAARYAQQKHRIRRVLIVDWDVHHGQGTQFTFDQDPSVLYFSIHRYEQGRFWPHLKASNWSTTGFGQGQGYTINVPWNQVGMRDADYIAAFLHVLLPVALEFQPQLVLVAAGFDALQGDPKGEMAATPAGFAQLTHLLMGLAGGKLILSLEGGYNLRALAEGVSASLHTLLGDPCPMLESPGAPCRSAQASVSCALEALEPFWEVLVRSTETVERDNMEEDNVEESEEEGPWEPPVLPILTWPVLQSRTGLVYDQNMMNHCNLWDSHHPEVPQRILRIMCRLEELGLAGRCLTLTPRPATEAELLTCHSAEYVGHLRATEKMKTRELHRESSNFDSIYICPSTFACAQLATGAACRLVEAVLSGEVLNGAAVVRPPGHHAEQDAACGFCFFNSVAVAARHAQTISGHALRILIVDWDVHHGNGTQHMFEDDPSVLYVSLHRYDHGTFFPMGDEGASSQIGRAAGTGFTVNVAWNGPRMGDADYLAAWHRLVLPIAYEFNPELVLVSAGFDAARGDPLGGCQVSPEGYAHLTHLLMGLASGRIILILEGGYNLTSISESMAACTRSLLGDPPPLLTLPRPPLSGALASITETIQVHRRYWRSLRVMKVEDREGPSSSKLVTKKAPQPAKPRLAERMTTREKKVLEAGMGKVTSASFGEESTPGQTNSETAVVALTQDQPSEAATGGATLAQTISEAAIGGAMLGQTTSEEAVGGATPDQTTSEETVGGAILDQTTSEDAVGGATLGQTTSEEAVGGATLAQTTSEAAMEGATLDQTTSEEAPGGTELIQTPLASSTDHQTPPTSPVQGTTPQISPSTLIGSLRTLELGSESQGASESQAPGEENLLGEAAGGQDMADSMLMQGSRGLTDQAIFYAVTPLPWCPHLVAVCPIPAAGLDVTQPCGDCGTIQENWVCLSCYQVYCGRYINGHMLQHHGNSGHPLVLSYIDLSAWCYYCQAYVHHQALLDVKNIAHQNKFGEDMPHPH
Outline: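 Full-length human HDAC6 (GST-purified, Sf-9 expressed) preincubated with compound 60 min at room temperature in Tris-HCl pH 7.5 buffer with MgCl2, KCl, NaCl, glutathione, Tween-20. HDAC-Glo I/II substrate-developer then added, 20 min room temperature, luminescence read. Inhibition relative to no-enzyme wells as 100%.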

tauopathy mouse model = conditions: cited from earlier work
bone-marrow cells = assay: Micronucleus test in rats (bone-marrow cells); type: in vivo, rats (Crl:CD(SD))
Procedure: Combination Assay of Micronucleus Test and Comet Assay in Rats […] Bone-marrow smear for micronucleus analysis was prepared as follows. Femur was cut at both ends, and washed with fetal bovine serum (FBS) in a centrifuging tube, and the obtained bone-marrow fluid was centrifuged for 5 min at room temperature. The supernatant was removed, and the cell sediment was suspended in the remaining small amount of the supernatant. A part of the suspension was dropped on a glass slide, and a cover glass was placed thereon to give a bone-marrow smear. The smear was dried well, and fixed with methanol for 5 min. The bone-marrow smear of negative control, that of treatment groups as well as the previously prepared bone-marrow smear of positive control group were encoded, and observed by the blind method. An acridine orange solution (40 μg/mL) was dropped (several drops) to the smear just before observation, and a cover glass was placed thereon. […] In addition, as an index of growth inhibitory effect on bone-marrow cell, total of 500 erythrocytes [immature erythrocytes+mature erythrocytes (ME)] per individual were observed, and immature erythrocyte rate (IE %) relative to the total number of erythrocytes was calculated.

[2] = system: liver and glandular stomach cells; assay: Comet assay in rats (liver and glandular stomach); type: in vivo, rats (Crl:CD(SD)); conditions: 3 days, test article = compound of Example 489
Procedure: Combination Assay of Micronucleus Test and Comet Assay in Rats
The compound of Example 489 at doses of 1000 and 2000 mg/kg was orally administered to 8 to 9-week-old rats (Crl:CD(SD), five/group) once daily for 3 days, and micronucleus induction was evaluated in bone-marrow cells, and DNA damage was evaluated by DNA fragmentation of cell nucleus in the liver and glandular stomach.
Sample for comet assay was obtained from liver and glandular stomach by the following procedures. A part of left lateral lobe of liver was washed well with a cooled mincing buffer solution (Hanks' balanced salt solution containing 20 mmol/L EDTA and 10 vol % DMSO, pH7.5), and minced finely with dissecting scissors. This sample was kept on ice for 15 to 30 seconds, the precipitated large cell mass was removed, and the obtained cell suspension was kept on ice. Glandular stomach was added to a cooled mincing buffer solution, and kept on ice for 15 to 30 min. Then, the surface epithelium was removed by scraping gently twice, the stomach mucosa was washed well with a cooled mincing buffer solution, and the mucosa surface was taken out by scraping carefully four times or five times. This was kept on ice for 15 to 30 seconds, the precipitated large cell mass was removed, and the obtained cell suspension was kept on ice.
The liver and glandular stomach cell suspensions prepared by the above-mentioned procedures were added to 0.5 w/v % low-melting agarose so that the concentration became 10 vol % or less, 40 μL of the suspension was dropped to MAS-coated slide (Matsunami Glass Ind., Ltd.), and fixed to give a slide sample. The slide sample was immersed in a cooled cell lysate [an aqueous solution containing 2.5 mol/L sodium chloride, 100 mmol/L EDTA, 10 mmol/L tris(hydroxymethyl)aminomethane, 10 vol % DMSO and 1 vol % Triton X-100, pH 10.0], and kept overnight under light shielding in a refrigerator (2 to 8° C.).
The slide sample was washed with ultrapure water, set at random into an electrophoresis apparatus filled with an alkali buffer solution (an aqueous solution containing 0.3 mol/L sodium hydroxide and 1 mmol/L EDTA, pH >13) for electrophoresis. After confirming that the sample was completely immersed, the sample was left for 20 min to unwind the strands. Next, electrophorese was performed at a constant voltage of 0.7 to 1 V/cm (current is set about 0.30 A) for 20 min (the electrophoresis apparatus was kept on ice so that the alkali buffer solution for electrophoresis was kept at a constant temperature of 10° C. or below, during from the dissociation of the strands to electrophoresis). After electrophoresis, the slide sample was immersed in a neutralizing solution [0.4 mol/L aqueous tris(hydroxymethyl)aminomethane solution, pH 7.5] for 5 min or longer. Then, the slide sample was immersed in ethanol for 5 min or longer, and air-dried. […] The slide samples for negative control, test compound and positive control groups were encoded, and analyzed by the blind method. In each individual animal, 150 of suitable cells were selected for observation using a biological microscope with fluorescence attachment at 200-fold final magnification, and analyzed by image analysis software (Comet Assay IV, Perceptive Instruments Ltd.). The degree of the DNA damage was evaluated by % tail intensity calculated automatically from image analysis software. The median of the % tail intensity was calculated in each slide sample, and the average of the median was calculated in each individual. […]

SMILES: CC(F)(F)C(=O)N[C@H]1[C@H](N2Cc3ccc(-c4nnc(C(F)F)o4)cc3C2=O)CCCC1(F)F [Example 512, N-((1S,6R)-6-(6-(5-(difluoromethyl)-1,3,4-oxadiazol-2-yl)-1-oxo-1,3-dihydro-2H-isoindol-2-yl)-2,2-difluorocyclohexyl)-2,2-difluoropropanamide]
- relative tubulin acetylation level (acetylated tubulin relative to total tubulin) [1]: increase in significant tubulin acetylation level was observed
- histone H2AX phosphorylation (γH2AX) resulted from DNA strand breakage (TK6 cells): did not induce histone H2AX phosphorylation
- potential for DNA strand breakage (judgement) (TK6 cells): negative
- inhibition at 10 µM (HDAC6 enzyme): 99%

SMILES: CC(F)(F)C(=O)N[C@H]1[C@H](N2Cc3ncc(-c4nnc(C(F)F)o4)cc3C2=O)CCCC1(F)F [Example 598, N-((1S,6R)-6-(3-(5-(difluoromethyl)-1,3,4-oxadiazol-2-yl)-5-oxo-5,7-dihydro-6H-pyrrolo[3,4-b]pyridin-6-yl)-2,2-difluorocyclohexyl)-2,2-difluoropropanamide]
- histone H2AX phosphorylation (γH2AX) resulted from DNA strand breakage (TK6 cells): did not induce histone H2AX phosphorylation
- potential for DNA strand breakage (judgement) (TK6 cells): negative
- inhibition at 10 µM (HDAC6 enzyme): 100%

SMILES: CN1CCc2c(c3ccccc3n2Cc2ccc(C(=O)NO)cc2)C1 [Tubastatin A]
- acetylation of tubulin (tauopathy mouse model): increases acetylation of tubulin
- therapeutic effectiveness (tauopathy mouse model): shows therapeutic effectiveness

SMILES: O=P1(N(CCCl)CCCl)NCCCO1 (stereo not shown) [cyclophosphamide]
- micronucleated immature erythrocytes incidences (MNIE %), mean ± SD (bone-marrow cells; rat bone marrow, positive control 20 mg/kg/day): ↑2.77 ± 0.88 %

SMILES: CC[C@@]1(O)C(=O)OCc2c1cc1n(c2=O)Cc2cc3cc4c(cc3nc2-1)OCO4 [test article]
- % tail DNA, mean ± SD ([2]; rat liver, 1000 mg/kg/day oral): 0.08 ± 0.03%
- % tail DNA, mean ± SD ([2]; rat liver, 2000 mg/kg/day oral): 0.11 ± 0.04%
- % tail DNA, mean ± SD ([2]; rat stomach, 1000 mg/kg/day oral): 0.59 ± 0.22%
- % tail DNA, mean ± SD ([2]; rat stomach, 2000 mg/kg/day oral): 0.48 ± 0.21%
- micronucleated immature erythrocytes incidences (MNIE %), mean ± SD (bone-marrow cells; rat, in vivo, po, 1000 mg/kg/day): 0.10 ± 0.04%
- micronucleated immature erythrocytes incidences (MNIE %), mean ± SD (bone-marrow cells; rat, in vivo, po, 2000 mg/kg/day): 0.10 ± 0.03%
